The values that follow come from ChEMBL document CHEMBL1144396 (J Med Chem, 2005).

Structures are written as SMILES.

This assay has as its target T1, Equilibrative nucleoside transporter 1 (Homo sapiens, UniProt Q99808).
T1 sequence (Q99808 whole entry): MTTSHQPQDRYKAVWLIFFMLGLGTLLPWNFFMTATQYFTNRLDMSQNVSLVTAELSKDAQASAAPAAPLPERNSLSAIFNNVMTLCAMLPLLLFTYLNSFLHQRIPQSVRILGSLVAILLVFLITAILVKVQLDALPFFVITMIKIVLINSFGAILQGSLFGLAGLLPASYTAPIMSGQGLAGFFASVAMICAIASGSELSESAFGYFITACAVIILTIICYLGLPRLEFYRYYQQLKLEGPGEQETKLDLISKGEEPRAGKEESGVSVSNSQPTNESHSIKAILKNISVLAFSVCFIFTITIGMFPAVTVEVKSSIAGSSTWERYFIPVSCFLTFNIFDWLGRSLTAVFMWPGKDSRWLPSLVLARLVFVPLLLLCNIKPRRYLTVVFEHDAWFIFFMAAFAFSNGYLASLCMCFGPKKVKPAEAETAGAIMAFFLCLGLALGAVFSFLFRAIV
As to the kind of experiment: Inhibition of [3H]NBTI binding to equilibrative nucleoside transport protein 1 (ENT1) in human erythrocyte membranes. Type of assay: cell membranes.
A word on the Ki: it is the equilibrium dissociation constant of an inhibitor or competing ligand from its target. Read a low Ki as higher affinity. `OC[C@H]1OC(n2c(NC3CCCC3)nc3c(SCc4ccccc4)ncnc32)[C@H](O)[C@@H]1O` (stereo partly drawn): the affinity corresponds to a Ki of 0.64 nM.
With `OC[C@H]1O[C@@H](n2cnc3c(NC4CCCC4)ncnc32)[C@H](O)[C@@H]1O` [N6-CYCLOPENTYLADENOSINE], the affinity corresponds to a Ki of 1100 nM.
As for `OC[C@H]1OC(n2c(N3CCCC3)nc3c(SCc4ccccc4)ncnc32)[C@H](O)[C@@H]1O` (stereo partly drawn), the affinity, expressed as Ki, was 410 nM.
On to `CCC(C)CNc1nc2c(SCc3ccccc3)ncnc2n1C1O[C@H](CO)[C@@H](O)[C@H]1O` (stereo partly drawn), for which the affinity corresponds to a Ki of 3.6 nM.
Still for that read-out and setting: the figure for `O=[N+]([O-])c1ccc(CSc2ncnc3c2nc(N2CCCC2)n3Cc2ccccc2)cc1` is 1520 nM.
The same measure, in the same setting: the figure for `CCCNc1nc2c(NC3CCCC3)ncnc2n1[C@@H]1O[C@H](CO)[C@@H](O)[C@H]1O` is 97 nM; for `OC[C@H]1OC(n2c(N3CCCCC3)nc3c(SCc4ccccc4)ncnc32)[C@H](O)[C@@H]1O` (stereo partly drawn) it is 744 nM; for `CNc1nc2c(SCc3ccccc3)ncnc2n1C1O[C@H](CO)[C@@H](O)[C@H]1O` (stereo partly drawn) it is 28 nM.
Consider `CCCCNc1nc2c(SCc3ccccc3)ncnc2n1C1O[C@H](CO)[C@@H](O)[C@H]1O` (stereo partly drawn), for which the affinity corresponds to a Ki of 5.4 nM.
On the same count and under the same terms, to `CCCCCCNc1nc2c(SCc3ccccc3)ncnc2n1C1O[C@H](CO)[C@@H](O)[C@H]1O` (stereo partly drawn) belongs 3.7 nM; to `OC[C@H]1OC(n2c(NC3CCCCC3)nc3c(SCc4ccccc4)ncnc32)[C@H](O)[C@@H]1O` (stereo partly drawn), 0.94 nM.
Take `OC[C@H]1O[C@@H](n2cnc3c(SCc4ccccc4)ncnc32)[C@H](O)[C@@H]1O` [6-BENZYLTHIOINOSINE]: the Ki was 53 nM.
The compound `CCNc1nc2c(SCc3ccccc3)ncnc2n1C1O[C@H](CO)[C@@H](O)[C@H]1O` (stereo partly drawn) had a Ki of 9.5 nM.
Still for that read-out and setting: to `OC[C@H]1OC(n2c(NC3CC3)nc3c(SCc4ccccc4)ncnc32)[C@H](O)[C@@H]1O` (stereo partly drawn) belongs 3 nM.
The Inhibition is how much of the control response was suppressed. In the case of `OC[C@H]1OC(n2c(N3CCOCC3)nc3c(SCc4ccccc4)ncnc32)[C@H](O)[C@@H]1O` (stereo partly drawn), the Inhibition worked out at 33%.
The compound `CCCCCNc1nc2c(SCc3ccccc3)ncnc2n1C1O[C@H](CO)[C@@H](O)[C@H]1O` (stereo partly drawn) registered a Ki of 2.3 nM.
On the same count and under the same terms, to `CCCNc1nc2c(SCc3ccccc3)ncnc2n1C1O[C@H](CO)[C@@H](O)[C@H]1O` (stereo partly drawn) belongs 5.3 nM.
As for `O=[N+]([O-])c1ccc(CSc2ncnc3c2nc(N2CCOCC2)n3Cc2ccccc2)cc1`, the Ki is 51 nM.
